Molecules are shown by their SMILES.

Series [1] is described as follows: in vivo. The note with it: rat, iv.
Description: Half life in rat at 1-2 mg/kg, iv
Series [2] can be described thus: in vivo. The note with it: rat, iv. This is another data set of the same source.
Description: Clearance in rat at 1-2 mg/kg, iv
Series [3] in a line: in vivo. The note with it: rat, iv. This is another data set of the same source.
In series [4] the target is C-C chemokine receptor type 5 (Homo sapiens, UniProt P51681). The series can be described thus: biochemical.
Chain of C-C chemokine receptor type 5 (P51681 whole entry): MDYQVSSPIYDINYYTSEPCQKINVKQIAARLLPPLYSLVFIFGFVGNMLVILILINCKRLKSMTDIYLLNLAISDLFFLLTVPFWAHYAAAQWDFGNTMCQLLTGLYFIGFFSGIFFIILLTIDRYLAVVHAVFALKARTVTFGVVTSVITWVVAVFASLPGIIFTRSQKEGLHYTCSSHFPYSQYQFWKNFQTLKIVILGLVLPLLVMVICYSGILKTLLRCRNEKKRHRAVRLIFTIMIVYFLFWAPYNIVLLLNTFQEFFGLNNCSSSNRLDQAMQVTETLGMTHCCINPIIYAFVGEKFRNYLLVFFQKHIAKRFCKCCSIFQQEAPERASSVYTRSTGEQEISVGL
Description: Displacement of [125I]MIP-1-alpha to human recombinant CCR5 expressed in CHO cells

Broadly, the half-life is the time in which the quantity being followed falls by half. As usually defined, the clearance is the rate of elimination divided by the concentration. Low readings indicate a low capacity for elimination, high ones a high capacity for elimination. Broadly, the Vd is a proportionality between amount in the body and measured concentration, not a real space. Low values mean confinement near the circulation, high ones extensive tissue distribution. As for `C=CCN(C(=O)Cc1ccc(S(C)(=O)=O)cc1)C1CCN(CCC(c2ccccc2)c2ccccc2)CC1`, the half-life in “in vivo [1]” was 0.9 h. The clearance in the series “in vivo [2]” came to 54 mL/min/kg. The same molecule gave a distribution volume (Vd) in the series “in vivo [3]” of 2.7 L/kg.
For `CCN(C(=O)Cc1ccc(S(C)(=O)=O)cc1)C1CCN(CCC(c2ccc(F)cc2)c2ccc(F)cc2)CC1`, the half-life in the series “in vivo [1]” was 2.4 h. The molecule further registered a clearance in the series “in vivo [2]” of 10 mL/min/kg. The volume of distribution (Vd) in the series “in vivo [3]” is 1.7 L/kg.
One may read the IC50 as the concentration that inhibits the measured activity by half. High values mean a need for much substance, low ones inhibition by little substance. Molecule `CCN(C(=O)Cc1ccc(S(C)(=O)=O)cc1)C1CCN(CC[C@H](c2ccc(S(C)(=O)=O)cc2)c2cccc(C#N)c2)CC1` showed an IC50 in series [4] of 56 nM.
Still for that read-out and setting: under `CCN(C(=O)Cc1ccc(S(C)(=O)=O)cc1)C1CCN(CC[C@H](c2ccc(S(C)(=O)=O)cc2)c2cccc(C(C)(C)C)c2)CC1` stands 500 nM.

For the origin of these results see ChEMBL document CHEMBL1138893, “Modulators of the human CCR5 receptor. Part 3: SAR of substituted 1-[3-(4-methanesulfonylphenyl)-3-phenylpropyl]-piperidinyl phenylacetamides” (Bioorg Med Chem Lett, 2006).
